{"source": "patent US20240239848A1", "about": "“HOLOTHURIAN-DERIVED ACTIVE PEPTIDE WITH IMMUNE ACTIVITY, PREPARATION METHOD AND APPLICATION THEREOF” (BOHAI UNIVERSITY, priority 2023, published 2024)", "format_in_all_cases": "cell-based, mouse", "key": {"macrophage RAW264.7": {"test_system": "macrophage RAW264.7", "test": "Survival rate of macrophages RAW264.7 (CCK-8 method)", "conditions": "RAW264.7, synthetic peptide 50-200 μg/mL, 24 h", "method": "Blank group: Macrophages RAW264.7 are inoculated into 96-well plates and cultured for 24 h.\nSample group: synthetic peptides with different concentrations (50-200 μg/mL) are used for treating for 24 h.\nThe CCK-8 method is used to measure the absorbance values of different components, and the survival rate of macrophage RAW264.7 is calculated according to the absorbance values."}, "IL-1β": {"test_system": "IL-1β", "test": "IL-1β secretion of macrophage RAW264.7 induced by LPS (ELISA)", "conditions": "LPS-induced RAW264.7, peptide 200 μg/mL", "protocol": "(§1) (2) Influence of IIENAVQ on the secretion of cytokines (IL-1β, TNF-α) of macrophage RAW264.7 induced by LPS\n(§2) Blank group: macrophage RAW264.7 cells are inoculated into a 96-well plate and cultured for 24 h.\n(§3) Induced injury group: after the cells in the blank group are cultured, the cells are treated with 100 ng/mL LPS for 24 h, and then treated with different concentrations (50-200 μg/mL) of IIENAVQ for 24 h.\n(§4) Negative control group: after cell culture in blank group, cells are treated with 100 ng/mL LPS for 24 h.\n(§5) The cytokines of different components are determined by ELISA kit.\n(§6) The final detection results of (1) and (2) are illustrated in FIG. 4A and FIG. 4B."}, "TNF-α": {"test_system": "TNF-α", "test": "TNF-α secretion of macrophage RAW264.7 induced by LPS (ELISA)", "conditions": "LPS-induced RAW264.7, peptide 200 μg/mL", "protocol": "as §1, §2, §3, §4, §5, §6"}, "[1]": {"test_system": "macrophage RAW264.7 induced by LPS", "test": "NO release from macrophage RAW264.7 induced by LPS (NO kit)", "protocol": "(2) Influence of Synthetic Peptide on NO Release from Macrophage RAW264.7 Induced by LPS\nas §2\nInduced injury group: after cell culture, cells in blank group are treated with 100 ng/ml LPS for 24 h, and then treated with synthetic peptides with different concentrations (50-200 μg/mL) for 24 h.\nas §4\nThe NO release amount of different components is measured by NO kit. After 24 hours of treatment with synthetic peptides with different concentrations, the NO release amount of macrophage RAW264.7 induced by LPS is shown in FIG. 3."}}, "note": "No end group written: not given here.", "data": [{"substance": "IIENAVQ [IIENAVQ]", "values": [{"measurement": "cell survival rate", "setting": "macrophage RAW264.7", "result": 116.88, "unit": "%"}, {"measurement": "inhibition rate of IL-1β secretion", "setting": "IL-1β", "result": 51.54, "unit": "%"}, {"measurement": "secretion of cytokine IL-1β", "setting": "IL-1β", "result": "28.73 ± 1.12", "unit": "pg/mL"}, {"measurement": "inhibition rate of TNF-α secretion", "setting": "TNF-α", "result": 60.24, "unit": "%"}, {"measurement": "secretion of cytokine TNF-α", "setting": "TNF-α", "result": "70.78 ± 5.55", "unit": "pg/mL"}, {"measurement": "release of NO from macrophages RAW264.7 induced by LPS, compared with LPS-negative control group", "setting": "[1]; 100 ng/mL LPS 24 h, then peptide 50-200 μg/mL 24 h", "result": "significantly reduces"}, {"measurement": "final concentration of NO", "setting": "[1]; LPS-induced RAW264.7, peptide 200 μg/mL", "result": "27.99 ± 0.33", "unit": "µmol/L"}]}]}
